Measurements reported in patent US20050202513A1.
“Also recorded” adds a separate entry of the source. Where a name gives a salt, the structure may show the parent alone.

Key:
cancer patient [1] = test: Measurement of creatine kinase in blood
cancer patient [2] = test: Electrocardiogram analysis; type: in vivo, human; details: adriamycin patient
cancer patient [3] = test: Blood serum human H-FABP level, sandwich ELISA (MARKIT M H-FABP kit); details: cut-off 6.2 ng/mL
cancer patient [4] = test: Blood Troponin T level, sandwich ELISA; details: cut-off 0.1 ng/mL
cancer patient [5] = test: Blood Myosin Light Chain I level, sandwich RIA; details: cut-off 2.5 ng/mL
cancer patient [6] = test: Echocardiogram analysis, ejection fraction of the heart; type: in vivo, human; details: cancer patient administered with adriamycin, healthy volunteer not less than 60%
Method: By the echocardiogram analysis, the heart pump function was evaluated based on the ejection fraction (EF) of the heart as calculated by the following formula: Ejection fraction (%)={(left ventricular relaxation terminal diameter^2−left ventricular contraction terminal diameter^2)/left ventricular relaxation terminal diameter^2)×100
The ejection fraction of healthy volunteers is known to be not less than 60%.

cancer patient [7] = test: Clinical diagnosis of cardiac function; type: in vivo, human; details: cancer patient administered with daunorubicin hydrochloride; expression of generalized edema
Method: The second blood sampling in the Table was performed one month after the first blood sampling.

[8] = adriamycin patient, first blood sampling
[9] = adriamycin patient, second blood sampling
[10] = adriamycin patient, third blood sampling
[11] = daunorubicin hydrochloride patient, first blood sampling
[12] = daunorubicin hydrochloride patient, second blood sampling (one month after the first)

## COc1cccc2c1C(=O)c1c(O)c3c(c(O)c1C2=O)C[C@@](O)(C(=O)CO)C[C@@H]3O[C@H]1C[C@H](N)[C@H](O)[C@H](C)O1 [adriamycin, Doxorubicin hydrochloride]
Cancer patient [1]; adriamycin patient, first blood sampling, healthy 25-180 U/L (male), 20-150 U/L (female)
  Blood concentration Creatine kinase: 37 U/L
Cancer patient [1]; adriamycin patient, second blood sampling (about 2.5 months after the first)
  Blood concentration Creatine kinase: 36 U/L
Cancer patient [1]; adriamycin patient, third blood sampling (20 days after the second)
  Blood concentration Creatine kinase: 33 U/L
Cancer patient [2]; about 1 week before the third blood sampling, hydrochloride
  Electrocardiogram finding: T wave decreased; also recorded: sinus tachycardia and supraventricular extrasystole
Cancer patient [2]; about 2 weeks before the first blood sampling
  Electrocardiogram finding: extension of QTc
Cancer patient [3]; adriamycin patient, blood serum, first blood sampling
  Blood concentration Human H-FABP: 6.8 ng/mL
Cancer patient [3]; adriamycin patient, blood serum, second blood sampling (about 2.5 months after the first)
  Blood concentration Human H-FABP: 9.0 ng/mL
Cancer patient [3]; adriamycin patient, blood serum, third blood sampling (20 days after the second)
  Blood concentration Human H-FABP: 19.6 ng/mL
Cancer patient [4]; [8]
  Blood concentration Troponin T: <0.01 ng/mL
Cancer patient [4]; [9]
  Blood concentration Troponin T: 0.01 ng/mL
Cancer patient [4]; [10]
  Blood concentration Troponin T: 0.41 ng/mL
Cancer patient [5]; [8]
  Blood concentration Myosin Light Chain I: <1.0 ng/mL
Cancer patient [5]; [9]
  Blood concentration Myosin Light Chain I: <1.0 ng/mL
Cancer patient [5]; [10]
  Blood concentration Myosin Light Chain I: <1.0 ng/mL
Cancer patient [6]; first blood sampling
  EF (ejection fraction): 53%
Cancer patient [6]; third blood sampling (20 days after the second)
  EF (ejection fraction): 37%

## COc1cccc2c1C(=O)c1c(O)c3c(c(O)c1C2=O)C[C@@](O)(C(C)=O)C[C@@H]3O[C@H]1C[C@H](N)[C@H](O)[C@H](C)O1 [daunorubicin hydrochloride]
Cancer patient [1]; daunorubicin hydrochloride patient with cardiac failure, first blood sampling
  Blood concentration Creatine kinase: 11 U/L
Cancer patient [1]; daunorubicin hydrochloride patient with cardiac failure, second blood sampling (one month after the first)
  Blood concentration Creatine kinase: 7 U/L
Cancer patient [3]; [11]
  Blood concentration Human H-FABP: 7.6 ng/mL
Cancer patient [3]; [12]
  Blood concentration Human H-FABP: 6.9 ng/mL
Cancer patient [4]; [11]
  Blood concentration Troponin T: <0.01 ng/mL
Cancer patient [4]; [12]
  Blood concentration Troponin T: <0.01 ng/mL
Cancer patient [5]; [11]
  Blood concentration Myosin Light Chain I: <1.0 ng/mL
Cancer patient [5]; [12]
  Blood concentration Myosin Light Chain I: 1.4 ng/mL
Cancer patient [7]
  Diagnosis: cardiac failure
